{"source": "paper PMC5955414", "about": "“PKD1 is a potential biomarker and therapeutic target in triple-negative breast cancer” (Oncotarget, 2018)", "key": {"PKD3 [1]": {"target": "T1, PKD3 (Homo sapiens, UniProt O94806)", "T1 sequence (O94806 1-890)": "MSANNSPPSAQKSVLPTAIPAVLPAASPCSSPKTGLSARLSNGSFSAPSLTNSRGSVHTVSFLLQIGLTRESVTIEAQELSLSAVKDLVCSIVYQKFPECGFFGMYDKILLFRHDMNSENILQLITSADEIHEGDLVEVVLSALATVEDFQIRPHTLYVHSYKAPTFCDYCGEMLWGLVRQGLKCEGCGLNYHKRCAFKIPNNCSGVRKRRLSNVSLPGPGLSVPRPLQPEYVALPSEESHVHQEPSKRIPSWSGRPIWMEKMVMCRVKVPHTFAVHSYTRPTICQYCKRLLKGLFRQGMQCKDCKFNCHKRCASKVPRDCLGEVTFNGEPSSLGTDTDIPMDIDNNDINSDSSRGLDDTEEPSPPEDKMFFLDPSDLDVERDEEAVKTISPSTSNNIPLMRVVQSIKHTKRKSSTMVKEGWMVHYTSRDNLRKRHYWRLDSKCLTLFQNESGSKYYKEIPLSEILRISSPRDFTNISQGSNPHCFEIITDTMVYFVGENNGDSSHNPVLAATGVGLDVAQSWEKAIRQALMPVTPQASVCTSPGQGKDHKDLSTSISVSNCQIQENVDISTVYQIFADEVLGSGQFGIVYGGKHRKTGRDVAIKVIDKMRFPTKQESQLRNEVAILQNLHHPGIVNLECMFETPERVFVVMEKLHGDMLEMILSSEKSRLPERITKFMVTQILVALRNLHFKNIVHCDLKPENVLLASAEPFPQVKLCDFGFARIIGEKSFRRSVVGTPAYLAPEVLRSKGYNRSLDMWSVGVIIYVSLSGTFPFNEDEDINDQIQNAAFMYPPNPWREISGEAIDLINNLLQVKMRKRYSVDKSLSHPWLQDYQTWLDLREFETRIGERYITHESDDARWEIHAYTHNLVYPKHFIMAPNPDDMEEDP", "parameters": "method as in PMID 20497126, PMID 20442301, PMID 18829454, PMID 21617763, PMID 20444281", "settings": "cited from earlier work"}, "[2]": {"system": "MCF7 chemoresistant xenografts", "parameters": "method as in PMID 26895471", "settings": "cited from earlier work"}, "PKD3 [3]": {"target": "T1, PKD3", "experiment": "In vitro kinase inhibitory activity, PKD3", "type": "biochemical", "settings": "AB9275: at concentrations inhibiting PKD1; compared with PKD1", "description": "(§1) Supplementary Figure 5: Specificity of the AB9275 PKD1 inhibitor. (A) Comparison of in vitro kinase inhibitory activities\n(§2) between AB9275 and different PKD1 inhibitors.\n(§3) CRT0066101. Other IC50s were obtained from the literature (as indicated). (B) Kinome selectivity profile of the AB9275 compound. The\n(§4) CA). AB9275 was screened at 1 μM."}, "PKCβ [4]": {"target": "T2, PKCβ (Homo sapiens, UniProt P05771)", "T2 sequence (P05771 whole entry, species assumed)": "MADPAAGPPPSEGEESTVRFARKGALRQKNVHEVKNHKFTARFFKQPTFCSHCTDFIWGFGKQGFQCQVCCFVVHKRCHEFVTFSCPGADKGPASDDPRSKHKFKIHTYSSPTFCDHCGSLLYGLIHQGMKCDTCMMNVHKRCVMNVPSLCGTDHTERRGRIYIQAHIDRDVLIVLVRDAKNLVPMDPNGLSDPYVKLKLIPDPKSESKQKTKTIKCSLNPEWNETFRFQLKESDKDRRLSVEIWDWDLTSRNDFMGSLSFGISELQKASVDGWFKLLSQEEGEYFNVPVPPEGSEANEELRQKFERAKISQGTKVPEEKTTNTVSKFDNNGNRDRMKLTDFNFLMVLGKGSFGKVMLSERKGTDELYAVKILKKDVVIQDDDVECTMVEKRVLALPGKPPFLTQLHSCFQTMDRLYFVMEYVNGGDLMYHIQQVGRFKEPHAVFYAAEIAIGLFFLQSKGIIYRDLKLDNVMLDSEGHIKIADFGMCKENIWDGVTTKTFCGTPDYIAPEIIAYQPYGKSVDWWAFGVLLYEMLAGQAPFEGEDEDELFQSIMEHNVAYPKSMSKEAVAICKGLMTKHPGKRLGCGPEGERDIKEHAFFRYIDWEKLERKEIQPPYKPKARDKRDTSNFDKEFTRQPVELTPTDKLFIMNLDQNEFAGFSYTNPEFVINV", "experiment": "In vitro kinase inhibitory activity, PKCβ", "type": "biochemical", "settings": "AB9275: at concentrations inhibiting PKD1", "description": "as §1, §2, §3, §4"}, "PKCβ [5]": {"target": "T2, PKCβ", "parameters": "method as in PMID 20497126, PMID 20442301, PMID 18829454, PMID 21617763, PMID 20444281", "settings": "cited from earlier work"}, "PKCα [6]": {"target": "T3, PKCα (Homo sapiens, UniProt P17252)", "parameters": "method as in PMID 20497126, PMID 20442301, PMID 18829454, PMID 21617763, PMID 20444281", "settings": "cited from earlier work"}, "PKCα [7]": {"target": "T3, PKCα", "experiment": "In vitro kinase inhibitory activity, PKCα", "type": "biochemical", "settings": "AB9275: at concentrations inhibiting PKD1", "description": "as §1, §2, §3, §4"}}}
{"compound": "O=C1NCCCc2c1oc1ccc(O)cc21", "note": "[CID755673]", "values": [{"measurement": "Inhibition of PKD3 relative to PKD1 (literature)", "setting": "PKD3 [1]", "value": "similarly inhibit PKD1 and PKD3"}]}
{"compound": "CC[C@@H](N)CNc1ccnc(-c2cc(-c3cnn(C)c3)ccc2O)n1.Cl.Cl", "note": "[CRT0066101]", "values": [{"measurement": "Inhibition of PKD3 relative to PKD1 (literature)", "setting": "PKD3 [1]", "value": "similarly inhibit PKD1 and PKD3"}, {"measurement": "Tumor growth of MCF7 chemoresistant xenografts in vivo", "setting": "[2]", "value": "able to inhibit tumor growth"}, {"measurement": "Inhibition of PKD3 in vitro", "setting": "PKD3 [3]", "value": "more potent against PKD3"}]}
{"compound": "Cn1c2ccccc2c2c3c(c4c5ccccc5n(CCC#N)c4c21)CNC3=O", "note": "[Gö6976]", "values": [{"measurement": "Inhibition of PKCβ in vitro", "setting": "PKCβ [4]", "value": "strongly inhibited"}, {"measurement": "Inhibition of PKCβ (literature)", "setting": "PKCβ [5]", "value": "also inhibits"}, {"measurement": "Inhibition of PKCα (literature)", "setting": "PKCα [6]", "value": "also inhibits"}, {"measurement": "Inhibition of PKCα in vitro", "setting": "PKCα [7]", "value": "strongly inhibited"}]}
{"compound": "CRT5", "values": [{"measurement": "Inhibition of PKD3 relative to PKD1 (literature)", "setting": "PKD3 [1]", "value": "similarly inhibit PKD1 and PKD3"}]}
